One assay has as its target GPIIb/IIIa (Homo sapiens, UniProt P05106+P08514). Kind of assay: In vitro solid phase purified glycoprotein IIb/IIIa binding assay (fibrinogen binding). Particulars: for inhibition at 50 µM: read-out: Fibrinogen Binding % Inh. (50 μM). As for the experimental part:
In Vito Solid Phase Purified Glycoprotein IIB/IIA Binding Assay
The plate was covered and incubated overnight at 4° C. The GPIIb/IIa solution was discarded and 150 μl of 5% BSA was added and incubated at RT for 1-3 h. The plate was washed extensively with modified Tyrodes buffer. Biotinylated fibrinogen (25 μl/well) at 2×final concentration was added to the wells that contain the test compounds (25 μl/well). The plate was covered and incubated at RT for 2-4 h. Twenty minutes prior to incubation completion, one drop of Reagent A (Vecta Stain ABC Horse Radish Peroxidase kit, Vector Laboratories, Inc.) and one drop Reagent B were added with mixing to 5 mL modified Tyrodes buffer mix and let stand. The ligand solution was discarded and the plate washed (5×200 μl/well) with modified Tyrodes buffer. Vecta Stain HRP-Biotin-Avidin reagent (50 μl/well, as prepared above) was added and incubated at RT for 15 min. The Vecta Stain solution was discarded and the wells washed (5×200 μl/well) with modified Tyrodes buffer. Developing buffer (10 mL of 50 mM citrate/phosphate buffer @ pH 5.3, 6 mg o-phenylenediamine, 6 μl 30% H2 O2; 50 μl/well) was added and incubated at RT for 3-5 min, and then 2N H2 SO4 (50 μl/well) was added. The absorbance was read at 490 nm.

The subject of the next assay is gel-filtered platelets. The assay can be described thus: In vitro inhibition of thrombin-induced gel-filtered platelet aggregation. The assay is classed as cell-based. Particulars: Homo sapiens; for inhibition at 50 µM: read-out: Platelet Aggregation % Inh. (50 μM). As for the experimental part: In Vitro Inhibition of Thrombin-Induced Gel-Filtered Platelet Aggression Assay
The percentage of platelet aggregation is calculated as an increase in light transmission of compound-treated platelet concentrate vs. control-treated platelet concentrate. Human blood was obtained from drug free, normal donors into tubes containing […] sodium citrate. Platelet rich plasma (PRP) was collected by centrifugation of whole blood at 200×g for 10 min at 25° C. The PRP (5 mL) was gel filtered through Sepharose 2B (bed volume 50 mL), and the platelet count was adjusted to 2×10^7 platelets per sample. The following constituents were added to a siliconized cuvette: concentrated platelet filtrate and Tyrode's buffer (0.14M NaCl, 0.0027M KCl, 0.012M NaHCO3,0.76 mM Na2 HPO4, 0.0055M glucose, 2 mg/mL BSA and 5.0 mM HEPES @ pH 7.4) in an amount equal to 350 μl, 50 μl of 20 mM calcium and 50 μl of the test compound. Aggregation was monitored in a BIODATA aggregometer for the 3 min following the addition of agonist (thrombin 50 μl of 1 unit/mL).

These results are taken from US6303625A, “Triazolopyridines for the treatment of thrombosis disorders” (Ortho-McNeil Pharmaceutical, Inc., priority 1999, dated 2001).

SMILES strings stand for the structures.

GPIIb/IIIa, sequence (P08514 32-887 limits assumed): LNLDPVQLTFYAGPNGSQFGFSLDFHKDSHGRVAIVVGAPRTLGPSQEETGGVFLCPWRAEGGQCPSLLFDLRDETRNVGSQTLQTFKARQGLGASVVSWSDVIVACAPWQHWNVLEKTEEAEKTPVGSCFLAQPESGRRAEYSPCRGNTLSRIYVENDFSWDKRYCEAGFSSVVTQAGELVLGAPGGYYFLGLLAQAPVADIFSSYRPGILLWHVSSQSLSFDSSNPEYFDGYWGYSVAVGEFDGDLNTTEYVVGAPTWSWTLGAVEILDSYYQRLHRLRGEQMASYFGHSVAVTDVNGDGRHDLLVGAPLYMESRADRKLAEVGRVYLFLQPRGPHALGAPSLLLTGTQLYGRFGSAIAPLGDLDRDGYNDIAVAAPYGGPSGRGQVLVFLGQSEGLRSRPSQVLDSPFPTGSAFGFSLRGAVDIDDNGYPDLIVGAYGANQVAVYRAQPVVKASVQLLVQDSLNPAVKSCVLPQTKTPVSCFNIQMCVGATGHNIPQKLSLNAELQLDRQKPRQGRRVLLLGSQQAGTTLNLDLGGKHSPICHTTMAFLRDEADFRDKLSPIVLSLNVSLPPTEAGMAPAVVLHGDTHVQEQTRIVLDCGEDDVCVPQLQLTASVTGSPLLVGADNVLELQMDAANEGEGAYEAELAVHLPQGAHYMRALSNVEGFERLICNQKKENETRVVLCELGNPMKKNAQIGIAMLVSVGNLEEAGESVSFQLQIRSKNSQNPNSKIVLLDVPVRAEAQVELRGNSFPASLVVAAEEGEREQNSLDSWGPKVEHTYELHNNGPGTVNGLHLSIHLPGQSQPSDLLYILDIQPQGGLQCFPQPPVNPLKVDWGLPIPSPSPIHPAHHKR
GPIIb/IIIa, sequence (P08514 891-1039 limits assumed): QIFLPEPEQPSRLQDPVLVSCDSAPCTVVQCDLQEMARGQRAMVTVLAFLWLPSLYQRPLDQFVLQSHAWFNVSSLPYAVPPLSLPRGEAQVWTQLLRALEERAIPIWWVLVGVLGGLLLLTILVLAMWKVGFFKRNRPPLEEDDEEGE
GPIIb/IIIa, sequence (P05106 27-788): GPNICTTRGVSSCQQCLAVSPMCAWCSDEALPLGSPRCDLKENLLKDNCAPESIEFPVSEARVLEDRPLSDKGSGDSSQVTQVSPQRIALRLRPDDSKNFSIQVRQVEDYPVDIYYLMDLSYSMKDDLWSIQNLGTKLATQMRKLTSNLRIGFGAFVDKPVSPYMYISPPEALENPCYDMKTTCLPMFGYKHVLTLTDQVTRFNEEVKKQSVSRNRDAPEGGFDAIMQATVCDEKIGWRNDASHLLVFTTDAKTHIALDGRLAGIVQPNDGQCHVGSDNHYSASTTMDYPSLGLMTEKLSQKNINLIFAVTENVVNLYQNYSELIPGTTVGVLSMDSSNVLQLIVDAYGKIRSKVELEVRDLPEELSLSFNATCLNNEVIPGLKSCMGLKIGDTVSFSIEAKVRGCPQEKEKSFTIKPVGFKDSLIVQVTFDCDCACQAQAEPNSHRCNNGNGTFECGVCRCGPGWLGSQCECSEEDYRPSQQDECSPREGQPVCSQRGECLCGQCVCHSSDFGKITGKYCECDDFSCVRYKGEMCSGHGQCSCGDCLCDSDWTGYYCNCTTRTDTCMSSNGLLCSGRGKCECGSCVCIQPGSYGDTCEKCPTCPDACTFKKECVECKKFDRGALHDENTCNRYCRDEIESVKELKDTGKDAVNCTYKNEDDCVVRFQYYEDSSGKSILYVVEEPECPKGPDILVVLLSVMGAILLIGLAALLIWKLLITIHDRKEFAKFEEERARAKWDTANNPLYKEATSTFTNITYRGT

`O=C(O)CCNC(=O)C1CCCn2c(CCC3CCNCC3)nnc21` (stereo not drawn) [Compound 2, β-[[[5,6,7,8-Tetrahydro-3-[2-(4-piperidinyl)ethyl]-1,2,4-triazolo[4,3-a]pyridin-8-yl]carbonyl]amino]-β-propanoic acid]: the IC50 – broadly, the concentration at which inhibition is half-maximal – at GPIIb/IIIa was found to be 7.2 nM; in the assay with gel-filtered platelets, 1300 nM. For the same molecule, the inhibition at 50 µM on GPIIb/IIIa and with gel-filtered platelets was 98% each time.
`CCN(CC)C(=O)COC(=O)[C@H](CNC(=O)C1CCCn2c(CCC3CCNCC3)nnc21)NC(=O)OCc1ccccc1` (stereo partly drawn) [Compound 6, β-[[[5,6,7,8-Tetrahydro-3-[2-(4-piperidinyl)ethyl]-1,2,4-triazolo[4,3-a]pyridin-8-yl]carbonyl]amino]-αS-benzyloxycarbonylamino-propanoic acid 2-(Diethylamino)-2-oxoethyl ester]: at GPIIb/IIIa, the half-inhibitory concentration (IC50) was determined as 8.2 nM and the inhibition at 50 µM turned out to be 100%. Moreover, in the assay on gel-filtered platelets, half-maximal inhibition (IC50) required 1900 nM and the inhibition at 50 µM amounted to 100%.
Take `O=C(O)CC(NC(=O)C1CCCn2c(CCC3CCNCC3)nnc21)c1ccsc1` (stereo not drawn) [Compound 7, β-[[[5,6,7,8-Tetrahydro-3-[2-(4-piperidinyl)ethyl]-1,2,4-triazolo[4,3-a]pyridin-8-yl]carbonyl]amino]-β-3-thiophenepropanoic acid]: at GPIIb/IIIa, the IC50 was found to be 0.75 nM and the inhibition at 50 µM is 100%. In the assay with gel-filtered platelets, the IC50 came to 350 nM and the inhibition at 50 µM was found to be 100%.
For the molecule `O=C(NC(CNC(=O)C1CCCn2c(C(F)=CC3CCNCC3)nnc21)C(=O)O)OCc1ccccc1` (stereo not drawn) [Compound 9, β-[[[6,7,8-Tetrahydro-3-[2-(4-piperidinyl)Z-1-fluoroethylene]-1,2,4-triazolo[4,3-a]pyridin-8-yl]carbonyl]amino]-αS-benzyloxycarbonylamino-propanoic acid], on GPIIb/IIIa, the IC50 stood at 1.7 nM and the inhibition at 50 µM was 100%. Further, in the assay on gel-filtered platelets, the 50% inhibitory concentration (IC50) worked out at 500 nM and the inhibition at 50 µM stood at 100%.
Consider `O=C(O)CC(NC(=O)C1CCCn2c(/C=C/C3CCNCC3)nnc21)c1ccncc1` (stereo not drawn) [Compound 10, β-[[[5,6,7,8-Tetrahydro-3-[2-(4-piperidinyl)E-ethylene]-1,2,4-triazolo[4,3-a]pyridin-8-yl]carbonyl]amino]-β-4-pyridinepropanoic acid], for which, at GPIIb/IIIa, the IC50 was found to be 0.94 nM and the inhibition at 50 µM was 100%. For the same molecule, in the assay with gel-filtered platelets, inhibition was half-maximal at 180 nM (IC50) and the inhibition at 50 µM came to 100%.
`Cc1noc(C)c1S(=O)(=O)N[C@@H](CNC(=O)C1CCCn2c(/C=C/C3CCNCC3)nnc21)C(=O)O` (stereo partly drawn) [Compound 11, β-[[[5,6,7,8-Tetrahydro-3-[2-(4-piperidinyl)E-ethylene]-1,2,4-triazolo[4,3-a]pyridin-8-yl]carbonyl]amino]-αS-4-(3,5-dimethylisoxazolyl)sulfonylamino-propanoic acid]: at GPIIb/IIIa, the IC50 stood at 1.1 nM and the inhibition at 50 µM is 100%. For the same molecule, in the assay on gel-filtered platelets, the midpoint of inhibition, the IC50, lay at 110 nM and the inhibition at 50 µM was found to be 100%.
Turning to `O=C(O)C[C@H](NC(=O)C1CCCn2c(/C=C/C3CCNCC3)nnc21)c1cnc2ccccc2c1` (stereo partly drawn) [Compound 13, β-[[[5,6,7,8-Tetrahydro-3-[2-(4-piperidinyl)E-ethylene]-1,2,4-tiazolo[4,3-a]pyridin-8-yl]carbonyl]amino]-βS-3-quinolinylpropanoic acid], at GPIIb/IIIa, the IC50 is 0.44 nM and the inhibition at 50 µM worked out at 100%. In the assay with gel-filtered platelets, half-maximal inhibition (IC50) was put at 57 nM and the inhibition at 50 µM was 100%.
For `O=C(NC[C@H](NS(=O)(=O)Cc1ccccc1)C(=O)O)C1CCCn2c(/C=C/C3CCNCC3)nnc21` (stereo partly drawn) [Compound 14, β-[[[5,6,7,8-Tetrahydro-3-[2-(4-piperidinyl)E-ethylene]-1,2,4-triazolo[4,3-a]pyridin-8-yl]carbonyl]amino]-αS-benzylsulfonylamino-propanoic acid], at GPIIb/IIIa, the 50% inhibitory concentration (IC50) was found to be 0.51 nM and the inhibition at 50 µM worked out at 100%. In the assay with gel-filtered platelets, the midpoint of inhibition, the IC50, lay at 43 nM and the inhibition at 50 µM was 100%.
